Source: patent US20170165236A1, “SELECTIVE SPHINGOSINE 1 PHOSPHATE RECEPTOR MODULATORS AND COMBINATION THERAPY THEREWITH” (Celgene International II Sàrl, priority 2013, published 2017)

What was measured:
S1P5 = biological target: T1, S1P5 (Homo sapiens, UniProt Q9H228); test: Specificity over other S1P receptors: S1P5-bla TANGO U2OS; assay type: cell-based; details: without Forskolin, read-out: S1P5 agonist value (EC50)
T1 construct: fused on or other part: Tango handle at the receptor's C-terminus: a TEV protease cleavage site and the Gal4-VP16 transcription factor, possibly a V2 vasopressin receptor tail; The cells also carry a beta-arrestin/TEV protease fusion and a UAS-beta-lactamase reporter
T1 sequence (Q9H228 whole entry, the tested form may be a part): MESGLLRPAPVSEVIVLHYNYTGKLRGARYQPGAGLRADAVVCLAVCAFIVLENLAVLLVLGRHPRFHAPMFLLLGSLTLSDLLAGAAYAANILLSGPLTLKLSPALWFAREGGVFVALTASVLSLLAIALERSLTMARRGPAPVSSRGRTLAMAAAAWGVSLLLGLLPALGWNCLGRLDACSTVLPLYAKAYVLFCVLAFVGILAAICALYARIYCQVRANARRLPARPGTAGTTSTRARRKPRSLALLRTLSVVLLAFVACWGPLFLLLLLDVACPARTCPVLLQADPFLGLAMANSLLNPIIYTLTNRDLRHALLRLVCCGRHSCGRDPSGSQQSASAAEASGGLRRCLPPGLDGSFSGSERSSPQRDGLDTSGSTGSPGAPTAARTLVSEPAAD
Experimental: (§1) Cells were seeded into 384-well black wall/clear bottom plates at 10^4 cells/well/19.5 μl assay media (DMEM-phenol free, 0.5% charcoal/dextran stripped serum, 2 mM glutamine, 0.1 mM NEAA, 1 mM Na-Pyruvate, 25 mM Hepes) and incubated for 18 hrs at 37° C. in 5% CO2. Dose response curves (10-point) were generated in 10 mM Hepes, 0.1% Pluronic F127, in the presence of Forskolin. Cells were treated with 0.5 μl compound in the presence of 2 μM Forskolin for 4 hrs at 37° C. The FRET-based β-lactamase fluorescent substrate (LiveBLAzer™-FRET B/G Loading Kit CC4-AM; Invitrogen) was prepared according to manufacturer's directions, and incubated with cells for 2 hrs at room temperature. Plates were read at Ex:410/Em:458 and Ex:410/Em:522, and the response ratio determined. Data was analyzed by non-linear regression to determine the EC50 for inhibition of Forskolin induced cAMP.
(§2) To assess compound specificity on other S1P receptors the following cell lines were used: S1P2 CRE-bla CHOK1, S1P3-Gα15 NFAT-bla HEK293T (Invitrogen), S1P4-bla TANGO U2OS (Invitrogen), S1P5-bla TANGO U2OS (Invitrogen). The same assay set up for S1P1 was used but without Forskolin. S1P4 and S1P5 assays were performed in FreeStyle Expression medium (Invitrogen). S1P5 cells were incubated for 48 hrs in prior to treatment with compound.

peripheral T-cell counts = test: Lymphopenia in rats, multiple dose; assay type: in vivo; details: 24 hours after final dose of a 3-5 day multiple dose regimen
Experimental: In rats: Female rats (Simonsen Laboratories, Gilroy Calif.) were housed in an ALAAC accredited facility and the research was approved by the facilities Institutional Animal Care and Use Committee (IACUC). The animals were acclimated to the laboratory for at least 5 days prior to initiation of experiments. Rats (n=3/compound/time-point) were dosed by oral gavage with 1 mg/kg compound formulated in a vehicle consisting of 5% DMSO/5% Tween 20 and 90% 0.1N HCL. Control rats were dosed PO with the vehicle. Whole blood was collected from isoflurane anesthetized rats via the retro-orbital sinus and terminal samples were collected by cardiac puncture into EDTA. Whole blood was incubated with mouse anti-rat CD32 (BD #550271), PE-mouse anti-rat CD45R/B220 (BD #554881), PECy5-mouse anti-rat CD4 (BD #554839), and APC-mouse anti-rat CD8a (eBioscience #17-0084) for 30 minutes on ice. Red blood cells were lysed using BD Pharm Lyse Lysing buffer (#555899) and white blood cells were analyzed with a BD FACSArray. Lymphopenia was expressed as the % of white blood cells that were CD4 or CD8 positive T cells. […]
Prior to the conduct of toxicology studies, the effect of three to five daily doses of each compound on peripheral T-cell counts of female rats was determined (see lymphopenia measurements in rats above). […]

S1P4 = biological target: T2, S1P4 (Homo sapiens, UniProt O95977); test: Specificity over other S1P receptors: S1P4-bla TANGO U2OS; assay type: cell-based; details: without Forskolin, read-out: S1P4 agonist value (EC50)
T2 construct: fused on or other part: Tango handle at the receptor's C-terminus: a TEV protease cleavage site and the Gal4-VP16 transcription factor, possibly a V2 vasopressin receptor tail; The cells also carry a beta-arrestin/TEV protease fusion and a UAS-beta-lactamase reporter
T2 sequence (O95977 1-384): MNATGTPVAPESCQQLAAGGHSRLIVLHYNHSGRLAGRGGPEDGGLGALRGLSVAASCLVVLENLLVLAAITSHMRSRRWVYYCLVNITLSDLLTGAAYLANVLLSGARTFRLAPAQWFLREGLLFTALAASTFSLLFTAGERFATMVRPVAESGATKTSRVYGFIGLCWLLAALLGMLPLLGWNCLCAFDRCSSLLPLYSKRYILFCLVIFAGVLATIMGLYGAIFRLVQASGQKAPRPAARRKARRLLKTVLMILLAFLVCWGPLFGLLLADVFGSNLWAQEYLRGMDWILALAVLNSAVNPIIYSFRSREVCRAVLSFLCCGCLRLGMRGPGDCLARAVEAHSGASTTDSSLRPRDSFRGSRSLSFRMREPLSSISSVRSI
Experimental: as §1, §2

S1P2 = biological target: T3, S1P2 (Homo sapiens, UniProt O95136); test: Specificity over other S1P receptors: S1P2 CRE-bla CHOK1; assay type: cell-based; details: S1P2 CRE-bla CHOK1, without Forskolin; read-out: S1P2 agonist value (EC50)
T3 construct: expressed in transfected cells; host or cells: CRE-bla CHOK1
T3 sequence (O95136 whole entry, species assumed): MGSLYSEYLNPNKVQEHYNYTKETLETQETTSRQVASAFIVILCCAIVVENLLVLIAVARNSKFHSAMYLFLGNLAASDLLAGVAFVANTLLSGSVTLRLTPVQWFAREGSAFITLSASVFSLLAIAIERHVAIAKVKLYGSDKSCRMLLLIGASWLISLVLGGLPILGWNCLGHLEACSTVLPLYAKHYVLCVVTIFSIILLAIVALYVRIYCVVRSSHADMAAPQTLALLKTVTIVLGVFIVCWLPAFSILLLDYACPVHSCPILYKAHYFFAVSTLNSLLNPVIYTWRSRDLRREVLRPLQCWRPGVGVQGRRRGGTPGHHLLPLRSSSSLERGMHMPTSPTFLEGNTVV
Experimental: as §1, §2

S1P1/EDG1 = S1P1/EDG1 (Homo sapiens, UniProt P21453); test: S1P1 CRE-bla CHOK1 reporter assay, inhibition of Forskolin induced cAMP; assay type: cell-based; details: CRE-bla CHOK1 cells, with Forskolin; read-out: S1P1 agonist value (EC50)
Sequence of S1P1/EDG1 (P21453 whole entry): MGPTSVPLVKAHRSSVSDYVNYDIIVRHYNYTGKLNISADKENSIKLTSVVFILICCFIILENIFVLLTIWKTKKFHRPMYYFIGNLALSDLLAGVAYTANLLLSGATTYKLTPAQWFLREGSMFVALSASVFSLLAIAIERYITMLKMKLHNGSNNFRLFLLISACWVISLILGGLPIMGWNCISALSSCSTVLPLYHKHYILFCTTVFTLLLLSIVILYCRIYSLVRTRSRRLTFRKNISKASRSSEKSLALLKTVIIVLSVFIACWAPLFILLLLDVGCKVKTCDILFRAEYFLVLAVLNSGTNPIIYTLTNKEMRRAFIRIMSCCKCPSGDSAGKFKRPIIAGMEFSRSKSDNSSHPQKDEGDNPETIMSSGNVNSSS
Experimental: Generation of S1P1-Mediated Inhibition of cAMP Reporter Assay
S1P1/pcDNA3.1 was transfected into the CRE-bla CHO K1 (Invitrogen) cell line, and stable single cell clones were selected using standard techniques.
S1P1 CRE-Bla CHOK1 Reporter Assay—Characterization of S1P1 Agonists
as §1, with “Plates were read at Ex:410/Em:458 and Ex:410/Em:522, and the response ratio determined.” left out

[1] = Therapeutic index, 5 or 14 day toxicology studies in rats (lung to body weight); assay type: in vivo, Sprague-Dawley rats
Experimental: All studies were conducted in non-fasted male and female Sprague-Dawely rats (Simonsen Laboratories). Rats were housed in an AAALAC accredited facility and the research was approved by the facilities Institutional Animal Care and Use Committee (IACUC). The animals were acclimated to the laboratory for at least 5 days prior to initiation of experiments.
The compounds listed in Table 6 were formulated as suspensions in a vehicle consisting of 0.5% carboxymethyl cellulose (Acros Organics) in purified water (pH adjusted to ˜2.2 with hydrochloric acid). The same formulation was used in the rat lymphopenia and toxicology studies described below. The concentration of each compound in suspension was verified to be within ±10% of the target concentration by HPLC-UV.
Prior to the conduct of toxicology studies, the effect of three to five daily doses of each compound on peripheral T-cell counts of female rats was determined (see lymphopenia measurements in rats above). In these lymphopenia studies, blood samples were collected onto EDTA at intervals after the final study dose. The collection times were not identical for each study; however, all studies included a sample collected 24 hours after the final dose. The lymphopenia data was used as a biomarker to select equally pharmacologically active doses for the subsequent toxicology study. […]

Q: What does the source list for `CC(C)Oc1ccc(-c2nc(-c3cccc4c3CCC4NS(=O)(=O)CCO)no2)cc1C#N` (stereo in doubt) [Compound 186, (R)—N-(4-(5-(3-cyano-4-isopropoxyphenyl)-1,2,4-oxadiazol-3-yl)-2,3-dihydro-1H-inden-1-yl)-2-hydroxyethanesulfonamide]?
A: EC50 (S1P5): 32.3 nM; Dose Producing 50% lymphopenia (peripheral T-cell counts): 0.07 mg/kg; EC50 (S1P4): 1210 nM; EC50 (S1P2): 1570 nM; EC50 (S1P1/EDG1): 0.05 nM; TI 5 days ([1]; 5 day toxicology study, dose for 10% lung weight increase / dose for 50% T-cell depletion): 16; Dose Resulting in 10% increase in lung weight ([1]; oral, 5 or 14 consecutive days, interpolated from dose versus lung to body weight): 1.1 mg/kg
